Legend:
[1] = tested on: purified α2β1FXYD1 complexes of Na,K-ATPase; assay: Dissociation of cardiac glycosides from the α2β1 isoform complex; conditions: α2β1 isoform complex, 37° C.
Procedure: Since the principal isoform in NPE cells is α2 and dissociation from the pump is expected to affect the duration of the effects on IOP, the dissociation rates of different cardiac glycosides from the purified α2β1 isoform were compared.
Purified α2β1FXYD1 complexes (0.3-0.5 mg/ml) were incubated for 30 minutes at 37° C. in a medium containing ATP, 1 mM; NaCl 100 mM; MgCl2, 4 mM Histidine.HCl 25 mM pH 7.4 without (Control) or with 1 μM of different cardiac glycosides. The enzyme solutions were then diluted 100-fold into a medium containing 100 mM NaCl, 5 mM KCl, 1 mM EDTA (Tris), 0.005 mg/ml C12E8, 0.01 mg/ml SOPS, and 0.001 mg/ml cholesterol and incubated at 37° C. for different lengths of time. Aliquots were removed at different times and Na,K-ATPase activity was measured in triplicate over 0.5 minutes (digoxigenin) or 2 minutes (other cardiac glycosides) in the standard activity medium containing 200 μM ATP. The activity of test samples was divided by the activity of the control samples and the time-course for reversal of inhibition was analyzed by fitting the data to the function vt=v∞e^−kt+c. Normalized curves for comparison of different experiments (e.g. as in FIG. 9) were obtained by subtracting the constant value c from each value of the activity and re-fitting the ratio vt/v∞=1−e^−kt.

[2] = tested on: intra-ocular pressure (IOP) of rabbits; assay: IB-MECA-induced ocular hypertension in rabbits; type: in vivo, New Zealand white rabbits; conditions: 1 mM applied after IB-MECA
Procedure: IB-MECA induces acute ocular hypertension by a different and well-defined mechanism. Namely, IB-MECA is a selective agonist of the A3-adenosine receptor, and rises aqueous humour inflow and IOP by activating Cl channels of the NPE cells (18, 19). […] FIG. 8A depicts the effects of DMe (0.1-1 mM) applied prior to the IB-MECA, and a similar result was obtained for DGlyN (not shown). FIG. 8B depicts effects of digoxigenin, DGlyN and DMe (1 mM) applied after the IB-MECA.
New Zealand white rabbits (3-3.5 kg) about 1 year old, of either sex, were housed individually in separate cages in animal room conditions on a reversed, 12-hour dark/light cycle. For the experiments the animals were transferred to rabbit restrainers in a quiet and calm atmosphere (FIG. 1). […] Animal care and treatment were subject to the approval of the institutional committee for animal experiments, Weizmann Institute IACUC permission (no 04270911-2).
IOP (mm Hg) of rabbits was measured using a calibrated Pneumatonometer (Model 30, Reichert technologies, FIG. 1). A local anesthetic Oxybuprocaine HCl (0.4%, 25 μl) was applied to each cornea about a minute before IOP measurements. Two baseline IOP readings were taken before topical administration of the CG (or PBS as control) and after half an hour (Zero time). […] At zero time one drop of 4AP (40 mg/ml, 30 μl) or IB-MECA (1 μM, 30 μl) was administered to both eyes of each rabbit IOP measurements were made at different times as indicated in each experiment. In the experiments for which the IOP was elevated for several hours, 4AP was added every […] or IB-MECA every 2 hours. […] In all cases the figures depict the average effect on IOP (i.e for four or six eyes) compared to control ±SEM. […] Significance of differences from the control was calculated by the unpaired Students t-test (p values), p values <0.05 were considered significant. Corneal thickness (μm) was measured using an ultrasonic pachymeter (Sonogage pachometer, Cleveland, USA), before and during the experiment with CG and 4AP treatments. The values represent averages of three independent measurements for each eye.

[3] = molecular target: Na,K-ATPase α1β1 isoform complex (Homo sapiens, UniProt P05023); assay: biochemical; set-up: made in house; host or cells: Pichia pastoris SMD1165; conditions: Ki, nM ± SEM α1β1, Table 6
Procedure: (§1) Methods for transformation, culture of P. pastoris clones, protein expression of Na,K-ATPase human isoforms (α1β1, α2β1, α3β1), membrane preparation, solubilization of membranes in DDM, and purification on BD-Talon beads have been described in detail (6-9, 11, 25). In initial experiments the three purified isoform complexes (0.3-0.5 mg/ml) were eluted from the BD-Talon beads in a solution containing Imidazole 170 mM, NaCl 100 mM; Tricine.HCl 20 mM pH 7.4; C12E8, 0.1 mg/ml; SOPS 0.07 mg/ml cholesterol 0.01 mg/ml, glycerol 25%. In later experiments the isoforms complexes were reconstituted with purified FXYD1 on the BD-Talon beads together as described in detail in (10, 11) prior to elution of α1β1FXYD1, α2β1FXYD1 and α3β1FXYD1 complexes. The proteins were stored at −80° C. Protein concentration was determined with BCA (B9643 Sigma).
(§2) Inhibition of Na,K-ATPase activity of the detergent-soluble α1β1, α2β1, and α3β1 complexes by CG's was determined as described (6) using either the αβ or αβFXYD1 complexes. […] The K0.5K was estimated by varying K concentration in a medium containing a fixed total K+choline chloride of 60 mM, and constant NaCl of 140 mM. Curves were fitted to the Hill function v=Vmax*[S]^n/([S]^n+K^n), where S is the K concentration, n is the Hill coefficient and K^n is K0.5K. For comparison of different curves the ratio v/Vmax for each curve was calculated and replotted. In experiments to assess inhibition of Na,K-ATPase activity by cardiac glycosides of the present invention, the percent inhibition VCG/V0 was calculated and Ki values were obtained by fitting the data to the function VCG/V0=Ki/([CG]+Ki)+ c. Inhibition was estimated in 3-8 separate experiments and average Ki values ±SEM were calculated. Significance of differences between Kiα1 and Kiα2 was calculated by the unpaired Student's t-test (p values). […] P values <0.05 were considered significant.

[4] = molecular target: Na,K-ATPase α2β1 isoform complex (Homo sapiens, UniProt P50993); assay: biochemical; type: biochemical; set-up: made in house; host or cells: Pichia pastoris SMD1165; conditions: Ki, nM ± SEM α2β1, Table 6
Procedure: as §1, §2

| SMILES | k ± SEM (rate of dissociation) [1] | Duration of the effect compared with digoxigenin [2] | Effect on IB-MECA-induced ocular hypertension [2] | Ki [3] [nM] | Ki [4] [nM] |
| --- | --- | --- | --- | --- | --- |
| CC1CN(CC(N)=O)CCC(OC2C(O)CC(OC3C(O)CC(OC4CCC5(C)C(CCC6C5CC(O)C5(C)C(C7=CC(=O)OC7)CCC65O)C4)OC3C)OC2C)O1 (centres unmarked) [DGlyN] | 0.009 ± 0.001, 3 min^−1 | significantly greater | almost the same as seen with 4AP |  |  |
| CC1CN(C)CCC(OC2C(O)CC(OC3C(O)CC(OC4CCC5(C)C(CCC6C5CC(O)C5(C)C(C7=CC(=O)OC7)CCC65O)C4)OC3C)OC2C)O1 (centres unmarked) [DMe] | 0.0067 ± 0.004, 3 min^−1 | significantly greater | almost the same as seen with 4AP | 103 ± 5.6 | 15.3 ± 1.2 |
